The values that follow come from patent US5882851A, “Cytochrome P-450 monooxygenases” (Novartis Finance Corporation, priority 1993, dated 1999).

The assay addresses T1, P-450TYR expressed in E. coli (Sorghum bicolor, UniProt Q43135).
T1 construct: in which the 35 N-terminal amino acids are replaced by the nine N-terminal amino acids from bovine 17α hydroxylase; nine N-terminal amino acids from bovine 17alpha-hydroxylase (replace the 35 N-terminal residues) (N); made in house; host or cells: E. coli JM109, vector pSP19g10L
Description: Substrate binding spectra of P-450TYR expressed in E. coli. From the text:
Cytochrome P-450TYR in the oxidized state has a strong absorption peak at 420 nm, representing the low spin state of the iron of the heme group. The binding of a ligand to the heme group shifts the absorption maximum by changing the spin state of the iron. Binding of tyrosine at the catalytic site of cytochrome P-450TYR induces a change of the spin state of the oxidized iron from low to high spin, and thereby changes the absorption maximum from 420 nm to 390 nm producing a type I spectrum (Jefcoate, Methods in Enzymology 52:258-279, 1978). The following experimental procedure is used to obtain the substrate binding spectrum: two identical cuvettes containing a buffered solution of the isolated cytochrome P-450 are prepared. The substrate of the enzyme is added to the sample cuvette whereas the same volume of buffer is added to the other cuvette. The difference spectrum is then recorded in an SLM-Aminco DW2c spectrophotometer. The absorption difference, A390-420, is proportional to the concentration of cytochrome P-450TYR with a bound substrate at its active site. If a saturating concentration of substrate is added to the sample cuvette, the absorption difference is proportional to the concentration of the substrate specific cytochrome P-450 in the cuvettes. The saturating concentration of the substrate is determined by titrating the cytochrome P-450 sample with increasing amounts of substrate and monitoring A390-420.
A modified cytocrome P-450TYR, in which the 35 N-terminal amino acids are replaced by the nine N-terminal amino acids from bovine 17α hydroxylase is introduced into the expression vector pSP19g10L which can be obtained from Dr. Henry Barnes (La Jolla, Calif.). This plasmid contains the lac Z promoter fused with the known short leader sequence (g10L) of gene 10 from bacteriophage T7 (Olin et al, 1988). A construct containing the N-terminal amino acids from bovine 17α hydroxylase and a truncated form of the P-450TYR gene is designed using PCR mutagenesis: Oligonucleotide TYROL 1d (5'-CGGGATCCATATGGCTCTGTTATTAGCAGTTTTTCTGTCGTACCTGGCCCG-3'; SEQ ID NO 23) containing a 5' mutant cDNA sequence as well as a BamHI and NdeI restriction site is used together with oligonucleotide TYROL 3 comprising the sequence surrounding the unique BamHI restriction site downstream of the ATG start codon of the cDNA coding for P-450TYR to amplify a modified N-terminal sequence of P-450TYR. The amplification product is cut with NdeI and BamHI restriction enzymes. To introduce a HindIII site immediately downstream of the stop codon of the P-450TYR gene, oligonucleotides TYROL 2 and TYROL 4 are used in a polymerase chain reaction to obtain a C-terminal fragment of the P-450TYR gene comprising a HindIII restriction site immediately downstream of the stop codon. The amplification product is cut with PstI and HindIII restriction enzymes. The complete expression plasmid is constructed by simultaneous ligation of the N-terminal NdeI/BamHI fragment, the BamHI/PstI fragment of the P-450TYR gene and the C-terminal PstI/HindIII fragment into NdeI/HindIII cleaved pSP19g10L vector DNA. The expression vector obtained is transformed into E. coli strain JM109. Transformed E. coli produce 300 nmol to 500 nmol cytochrome P-450TYR per liter cell culture upon growth at 28° C. in the presence of 1 mM isopropyl-β-D-thiogalactopyranoside and at 125 rpm. Expression levels as high as 900 nmol per liter, equivalent to 55 mg P-450TYR per liter, have been obtained. […]

T1 sequence (Q43135 other isoform, or with tags, fused parts or gaps): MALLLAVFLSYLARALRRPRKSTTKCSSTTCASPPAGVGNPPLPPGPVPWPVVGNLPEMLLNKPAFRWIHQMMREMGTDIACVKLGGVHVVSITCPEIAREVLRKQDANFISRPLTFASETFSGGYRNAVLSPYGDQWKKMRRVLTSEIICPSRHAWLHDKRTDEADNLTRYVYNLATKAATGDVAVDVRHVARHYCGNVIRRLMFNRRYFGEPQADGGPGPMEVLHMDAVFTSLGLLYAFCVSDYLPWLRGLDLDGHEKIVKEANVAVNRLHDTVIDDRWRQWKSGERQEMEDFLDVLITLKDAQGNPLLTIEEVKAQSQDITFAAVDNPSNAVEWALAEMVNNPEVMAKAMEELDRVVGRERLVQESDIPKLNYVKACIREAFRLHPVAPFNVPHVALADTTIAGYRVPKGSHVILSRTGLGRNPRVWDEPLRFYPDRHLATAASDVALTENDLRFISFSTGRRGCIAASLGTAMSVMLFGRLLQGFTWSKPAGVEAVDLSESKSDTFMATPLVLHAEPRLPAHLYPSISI

For `N[C@@H](Cc1ccc(O)cc1)C(=O)O` [tyrosine, L-tyrosine], the “molar extinction coefficient E420-390” value stood at 75.8 cm⁻¹ mM⁻¹.
